Laboratory results reported in patent publication US20180369230A1, “TARGETED SELECTION OF PATIENTS FOR TREATMENT WITH SPECIFIC CORTISTATIN DERIVATIVES” (President and Fellows of Harvard College, priority 2015, published 2018).

Legend:
A498 = assay: Soft agar growth assay; type: cell-based; conditions: A498, clear cell renal cell carcinoma, VHL negative, 100 nM
Method: (§1) For the 62 cell lines 96 well suspension cell culture plates were prepared. 100 μL of the soft agar bottom layer (0.6% final concentration in complete medium) was poured and left to solidify. 50 μL of the soft agar top layer (0.4% final concentration) containing the corresponding cells and cell number were then added on top, solidified and incubated at 37° C., 10% CO2. After the soft agar had solidified, the test items were added at indicated final concentrations into the inner wells of the plate. Subsequently, the assay was incubated in cell culture incubators for 8 to 14 days. Finally, the assay was developed using Alamar Blue and upon 1-5 h of incubation at 37° C. fluorescence intensity was determined (excitation: 560 nm; emission: 590 nm). As low control, cells were treated with 1E-05M Staurosporine (6fold values). As high control, cells were treated with 0.1% DMSO (solvent control, 6 fold values).
(§2) Raw data were converted into percent soft agar growth relative to high controls (solvent 0.1% DMSO) and low controls (1E-05M Staurosporine), which were set to 100% and 0%, respectively. The results are tabulated in FIGS. 15A, 15B, and 15C and Table 4 below.

Caki-2 = assay: Soft agar growth assay; type: cell-based; conditions: Caki-2, clear cell renal cell carcinoma, VHL negative, 100 nM
Method: as §1, §2

HCC827 = assay: Soft agar growth assay; type: cell-based; conditions: HCC827, Non small cell lung carcinoma, EGFR mutation, 100 nM
Method: as §1, §2

MCF-7 = assay: Soft agar growth assay; type: cell-based; conditions: MCF-7, Breast cancer, ER-alpha positive, 100 nM
Method: as §1, §2

MKN-45 = assay: Soft agar growth assay; type: cell-based; conditions: MKN-45, Gastric cancer, MET amplification, 100 nM
Method: as §1, §2

NCI-N87 = assay: Soft agar growth assay; type: cell-based; conditions: NCI-N87, Gastric cancer, HER2 overexpression, 100 nM
Method: as §1, §2

RL95-2 = assay: Soft agar growth assay; type: cell-based; conditions: RL95-2, Endometrial cancer, ER-alpha positive, 100 nM
Method: as §1, §2

SK-ES-1 = assay: Soft agar growth assay; type: cell-based; conditions: SK-ES-1, Osteosarcoma, EWS-FLI1, 100 nM
Method: as §1, §2

SK-N-F1 = assay: Soft agar growth assay; type: cell-based; conditions: SK-N-F1, Neuroblastoma, 100 nM
Method: as §1, §2

SK-N-MC = assay: Soft agar growth assay; type: cell-based; conditions: Neuroblastoma, EWS-FLI1, 100 nM
Method: as §1, §2

SK-N-SH = assay: Soft agar growth assay; type: cell-based; conditions: Neuroblastoma, 100 nM
Method: as §1, §2

SK.BR-3 = assay: Soft agar growth assay; type: cell-based; conditions: SK.BR-3, Breast cancer, HER2 overexpression, 100 nM
Method: as §1, §2

T47D = assay: Soft agar growth assay; type: cell-based; conditions: Breast cancer, ER-alpha positive, 100 nM
Method: as §1, §2

U87MG = assay: Soft agar growth assay; type: cell-based; conditions: Glioma, inactivating mutations in ETV1, FLI1 and SMC3, 100 nM
Method: as §1, §2

RUNX1 target genes = assay: Determination of gene expression levels; type: cell-based, human; conditions: SET-2, MOLM-14 and MV4;11
Method: Leukemia cells were plated (12-well) in triplicate at 500,000-800,000 cells per ml and incubated in the presence of vehicle (0.1% DMSO) or CA (25 nM 3 h for K562, MOLM-14 and MV4;11; 10 nM 24 h for MOLM-14; 25 nM 4 h for SET-2, n=3 for each cell line). Cells were then washed twice with cold PBS, and snap frozen. RNA was isolated (RNeasy Plus Microkit, Qiagen or TRIzol, Life Technologies), processed, and, for K562, MOLM-14 and MV4;11, hybridized to the Human U133 Plus 2.0 microarray (Affymetrix). Microarrays were processed with Bioconductor packages affyQCReport for quality control and affy for background correction, summarization, and normalization using rma. […] SET-2 and HCT 116 gene expression was measured by RNA-seq. […] Reads were aligned in two passes, first with rnaStar (v.2.3.0e) then with BWA (v.0.7.5a) for remaining unmapped reads, both using default parameters. Mapped reads were merged and counted using HTSeq (v.0.5.3p3) with -s yes -m intersection-strict. […] Samples were run in a single lane on an Illumina HiSEQ 2000 sequencer with a single read flow cell using 1×50-bp reads and a 6-cycle index read. Reads were mapped to the hg19 reference genome using Tophat2 v.2.0.6 with custom settings including the setting of -library-type fr- firstrand to appropriately account for the stranded nature of the protocol. […]

Substance: Cortistatin A
- % growth rel. to vehicle (A498): 51%
- % growth rel. to vehicle (Caki-2): 18%
- % growth rel. to vehicle (HCC827): 23%
- % growth rel. to vehicle (MCF-7): 49%
- % growth rel. to vehicle (MKN-45): 27%
- % growth rel. to vehicle (NCI-N87): 26%
- % growth rel. to vehicle (RL95-2): 16%
- % growth rel. to vehicle (SK-ES-1): 36%
- % growth rel. to vehicle (SK-N-F1): 30%
- % growth rel. to vehicle (SK-N-MC): 45%
- % growth rel. to vehicle (SK-N-SH): 29%
- % growth rel. to vehicle (SK.BR-3): 22%
- % growth rel. to vehicle (T47D): 48%
- % growth rel. to vehicle (U87MG): 36%
- expression of RUNX1 target genes including CEBPA, IRF8 and NFE2 (RUNX1 target genes): upregulated
